In patent publication EP0350260A2, “New oxamic acid compounds and pharmaceutical composition for use in improvement of damaged cerebral functions of brain” (MEIJI SEIKA KAISHA LTD., priority 1988, dated 1990):

Columns and labels:
[1] = tested on: mice having cerebral anoxia experimentally induced under the load of hypobaric hypoxia; test: Survival time of mice with cerebral anoxia induced under hypobaric hypoxia (Test 1); type: in vivo; conditions: 100 mg/kg intraperitoneally, 30 minutes before evacuation to 190 mmHg; 6 ddy mice per group; untreated control group = 100
Method: ddy Mice (6 weeks old, body weight: 25-30 g, each group comprising 6 ddy mice) were administered intraperitoneally with the compounds of the present invention, respectively. Each of the tested compounds of this invention had been beforehand dissolved in redistilled water and the aqueous solution was administered in an amount of 0.1 ml per 10 g body weight. Thirty minutes after the administration, the mice were individually placed in hermetic transparent containers. The containers were rapidly evacuated to 190 mmHg by means of a vacuum pump. Time was measured from the initiation of the evacuation to the death of each mouse due to respiratory failure. That time was recorded as the survival time (seconds) of mice.
The ratios of the survival time of the groups of the treated mice which received the administration of the tested compounds of this invention divided by the survival time of a control group (untreated) which received no administration of the drug were calculated.

ddy mice = conditions: mouse, in vivo
Method: The toxicity of the compounds of the general formula (I) usable in this invention was evaluated by using N,N-di-isopropyloxamic acid as one example.

Structure (SMILES): C=CCN(CC=C)C(=O)C(=O)O [N,N-di-allyloxamic acid]
- Survival time ratio (control group: 100) [1]: 187

Structure (SMILES): CCCN(CCC)C(=O)C(=O)O [N,N-di-n-propyl-oxamic acid, N,N-di-n-propyloxamic acid]
- Survival time ratio (control group: 100) [1]: 181

Structure (SMILES): CCCN(CC)C(=O)C(=O)O [N-ethyl-N-n-propyl-oxamic acid, N-ethyl-N-n-propyloxamic acid]
- Survival time ratio (control group: 100) [1]: 166

Structure (SMILES): CCCCN(CC)C(=O)C(=O)O [N-ethyl-N-butyl-oxamic acid, N-ethyl-N-n-butyloxamic acid]
- Survival time ratio (control group: 100) [1]: 116

Structure (SMILES): CC(C)N(C(=O)C(=O)O)C(C)C [N,N-di-isopropyl-oxamic acid, N,N-di-isopropyloxamic acid]
- Survival time ratio (control group: 100) [1]: 155
- toxicity (survival of mice) (ddy mice): all the mice tolerated it and remained alive
